Experimental data as given in patent US9051553B2, “Poly(ADP-ribose) polymerase genes” (AbbVie Deutschland GmbH & Co. KG, priority 1998, dated 2015).

Target: T1, PARP3 (Homo sapiens, UniProt Q9Y6F1)
T1 construct: made in house; host or cells: insect cells (Sf9 or High-Five), baculovirus, pFASTBAC-1
T1 sequence (Q9Y6F1 1-533): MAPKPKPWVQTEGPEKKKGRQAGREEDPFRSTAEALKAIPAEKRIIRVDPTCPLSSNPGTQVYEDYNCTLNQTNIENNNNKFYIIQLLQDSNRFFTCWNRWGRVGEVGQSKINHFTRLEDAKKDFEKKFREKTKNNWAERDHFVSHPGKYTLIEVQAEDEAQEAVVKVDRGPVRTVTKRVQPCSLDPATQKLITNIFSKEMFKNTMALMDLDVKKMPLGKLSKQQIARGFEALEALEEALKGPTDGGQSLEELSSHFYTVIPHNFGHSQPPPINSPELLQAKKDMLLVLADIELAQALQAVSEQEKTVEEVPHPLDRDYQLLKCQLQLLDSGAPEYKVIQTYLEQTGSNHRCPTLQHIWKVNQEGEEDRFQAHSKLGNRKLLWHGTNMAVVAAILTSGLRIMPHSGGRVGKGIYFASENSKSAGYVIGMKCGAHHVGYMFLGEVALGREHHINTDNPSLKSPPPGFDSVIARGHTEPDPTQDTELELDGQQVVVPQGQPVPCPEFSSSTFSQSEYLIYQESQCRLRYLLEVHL
Assay: PARP inhibition assay, selectivity PARP2 versus PARP3
Format: biochemical
Details: PARP2 compared with PARP3 as printed
Procedure: Assay Systems for Determining the Activity of PARP2 and PARP3 and the Inhibitory Action of Effectors on PARP1, PARP2 and PARP3
Various concentrations were used to construct a dose-effect plot to determine the Ki value of an inhibitor. Values are obtained in triplicate for a particular inhibitor concentration. Arithmetic means are determined using Microsoft© Excel. The IC50 is determined using the Microcal© Origin Software (Vers. 5.0) (“Sigmoidal Fit”). Conversion of the IC50 value is calculated in this way into Ki values took place by using “calibration inhibitors”.
The “calibration inhibitors” were also measured in each analysis. The Ki values of the “calibration inhibitors” were determined in the same assay system by analysis of the Dixon diagram in the manner familiar to the skilled worker.
Measurement was then possible after 30 minutes (up to 4 hours). The measurement took place in a “discovery HTRF microplate analyzer” (Canberra Packard Instruments). The Ki values were calculated as described for the ELISA.

Compound: O=c1[nH]nc(CNc2ccc(O)cc2)c2ccccc12 [4-(N-(4-hydroxyphe-nyl)aminomethyl)-(2H)-dihydrophthalazine-1-one]
- selectivity for PARP2 over PARP3: eight times
